Format in all cases: in vivo
The test system of data set [1] is Cabbage Looper (Trichoplusia ni). Kind of data set: Bioassay on Cabbage Looper (CL), 128-well diet tray assay. To be noted: 168 h, 50 μg/cm^2 on artificial diet, second instar larvae, five to seven days, read-out: CL % Control (or Mortality) rating. The method, boiled down:
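Diet tray, 2nd instar, 1–5 larvae/well; 50 μg/cm^2 compound surface-applied (acetone:water 90:10), dried; 8 wells/treatment; 25° C, 14:10 L:D, 5–7 d; % mortality, mean of 8 wells.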

The subject of data set [2] is Green Peach Aphid (Myzus persicae). The experiment in a line: Bioassay on Green Peach Aphid (GPA), foliar spray on cabbage seedlings. To be noted: 72 h, 200 ppm foliar spray on cabbage seedlings, three days, Abbott corrected % control, read-out: GPA % Control (or Mortality) rating. As to the method:
Certain molecules disclosed in this document were tested against GPA using procedures described in the following example. In the reporting of the results, the “GPA & YFM Rating Table” was used (See Table Section).
Cabbage seedlings grown in 3-inch pots, with 2-3 small (3-5 cm) true leaves, were used as test substrate. The seedlings were infested with 20-50 GPA (wingless adult and nymph stages) one day prior to chemical application. Four pots with individual seedlings were used for each treatment. Test molecules (2 mg) were dissolved in 2 mL of acetone/methanol (1:1) solvent, forming stock solutions of 1000 ppm test molecule. The stock solutions were diluted 5× with 0.025% Tween 20 in water to obtain the solution at 200 ppm test molecule. A hand-held aspirator-type sprayer was used for spraying a solution to both sides of […] leaves until runoff. Reference plants (solvent check) were sprayed with the diluent only containing 20% by volume of acetone/methanol (1:1) solvent. Treated plants were held in a holding room for three days at approximately 25° C. and ambient relative humidity (RH) prior to grading. Evaluation was conducted by counting the number of live aphids per plant under a microscope. Percent control was measured using Abbott's correction formula (W. S. Abbott, “A Method of Computing the Effectiveness of an Insecticide” J. Econ. Entomol. 18 (1925), pp. 265-267) as follows. Corrected % Control=100*(X−Y)/X where X=No. of live aphids on solvent check plants and Y=No. of live aphids on treated plants. The results are indicated in the table entitled “Table ABC: Biological Results” (See Table Section).

For data set [3], the system named is Beet Armyworm (Spodoptera exigua). The experiment in a line: Bioassay on Beet Armyworm (BAW), 128-well diet tray assay. To be noted: Spodoptera exigua, 168 h; 50 μg/cm^2 on artificial diet, second instar larvae, five to seven days; read-out: BAW % Control (or Mortality) rating.
The test system of data set [4] is Yellow Fever Mosquito (Aedes aegypti). The settings on record: about 1 day-old larvae, 3 days, scored on mortality.

With `O=C(NNc1ncc(Cl)cn1)c1ccc(/C(F)=C/C(c2cc(Cl)c(Cl)c(Cl)c2)C(F)(F)F)cc1C(F)(F)F` (stereo not shown) [F63, (Z)—N′-(5-Chloropyrimidin-2-yl)-4-(1,4,4,4-tetrafluoro-3-(3,4,5-trichlorophenyl)but-1-en-1-yl)-2-(trifluoromethyl)benzohydrazide], the mortality at 50 µg/cm2 in data set [1] and in data set [3] was 50 to 100% each time. Also, the mortality at 200 ppm in data set [2] lay in the range of 0 to 80%. Moreover, the “YFM % Control (or Mortality) rating” value in data set [4] is “A (80-100)”.
